The numbers were not newly measured in publication PMC9886266, “New [1,2,4]triazolo[4,3-c]quinazolines as intercalative Topo II inhibitors: Design, synthesis, biological evaluation, and in silico studies” (PLOS ONE, 2023), which cites them from elsewhere.

Each structure is given as a SMILES string.

Common to all, as to set-up: method as in PMID 32882440
The target in data set [1] is T1, Topoisomerase II (Topo II) (Homo sapiens, UniProt P11388).
T1 construct: purchased TopoGEN, Inc., Columbus
As to conditions: previous work of the authors; cited from earlier work.

In data set [2] the test system is HCT-116 cell line. The settings on record: previous work of the authors; read-out: In vitro cytotoxicity IC50, HCT-116; cited from earlier work.
The test system of data set [3] is HepG2 cell line. As to conditions: previous work of the authors; read-out: In vitro cytotoxicity IC50, HepG2; cited from earlier work.
Data set [4] has as its system Activated Calf Thymus DNA. The settings on record: previous work of the authors; read-out: DNA/Methyl green (IC50); cited from earlier work.

T1 sequence (P11388 whole entry): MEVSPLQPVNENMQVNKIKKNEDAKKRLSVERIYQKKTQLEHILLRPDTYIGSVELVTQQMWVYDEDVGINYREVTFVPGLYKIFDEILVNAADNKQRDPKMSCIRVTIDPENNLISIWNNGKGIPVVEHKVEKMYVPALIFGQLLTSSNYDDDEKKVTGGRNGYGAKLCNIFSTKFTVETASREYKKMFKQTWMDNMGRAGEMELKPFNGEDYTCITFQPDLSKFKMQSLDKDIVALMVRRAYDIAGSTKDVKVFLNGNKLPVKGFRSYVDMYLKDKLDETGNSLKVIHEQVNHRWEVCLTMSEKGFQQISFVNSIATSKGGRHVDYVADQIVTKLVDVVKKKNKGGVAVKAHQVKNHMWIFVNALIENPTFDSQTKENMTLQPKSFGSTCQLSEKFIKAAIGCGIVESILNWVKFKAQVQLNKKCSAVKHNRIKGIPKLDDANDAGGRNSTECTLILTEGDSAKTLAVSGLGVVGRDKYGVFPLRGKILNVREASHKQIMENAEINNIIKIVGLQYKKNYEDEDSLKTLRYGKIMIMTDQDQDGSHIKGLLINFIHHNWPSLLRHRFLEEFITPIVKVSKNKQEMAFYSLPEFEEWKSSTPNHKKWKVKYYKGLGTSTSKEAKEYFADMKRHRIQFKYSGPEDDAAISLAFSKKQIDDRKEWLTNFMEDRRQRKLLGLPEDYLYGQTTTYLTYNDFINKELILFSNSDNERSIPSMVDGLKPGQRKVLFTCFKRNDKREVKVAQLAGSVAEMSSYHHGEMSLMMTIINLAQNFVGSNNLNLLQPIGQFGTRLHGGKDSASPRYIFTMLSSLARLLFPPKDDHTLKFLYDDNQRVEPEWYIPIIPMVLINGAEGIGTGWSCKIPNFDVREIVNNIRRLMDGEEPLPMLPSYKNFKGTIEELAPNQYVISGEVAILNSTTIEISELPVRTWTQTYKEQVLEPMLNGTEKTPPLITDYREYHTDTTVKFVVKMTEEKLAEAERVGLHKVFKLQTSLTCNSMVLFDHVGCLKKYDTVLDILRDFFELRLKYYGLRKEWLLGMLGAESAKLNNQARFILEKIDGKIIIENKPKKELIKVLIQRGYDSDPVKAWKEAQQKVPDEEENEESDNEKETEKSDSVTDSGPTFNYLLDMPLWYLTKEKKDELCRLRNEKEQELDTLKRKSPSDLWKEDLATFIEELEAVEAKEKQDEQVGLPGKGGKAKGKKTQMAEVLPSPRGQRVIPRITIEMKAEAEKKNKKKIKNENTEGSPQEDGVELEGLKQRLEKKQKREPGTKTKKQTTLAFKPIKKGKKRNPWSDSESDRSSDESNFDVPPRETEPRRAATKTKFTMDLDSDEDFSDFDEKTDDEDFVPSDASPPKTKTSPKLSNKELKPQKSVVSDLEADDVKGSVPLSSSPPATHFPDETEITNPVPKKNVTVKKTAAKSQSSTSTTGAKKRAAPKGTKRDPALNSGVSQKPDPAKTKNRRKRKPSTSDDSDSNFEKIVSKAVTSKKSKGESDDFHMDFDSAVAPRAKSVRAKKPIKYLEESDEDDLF

As for `O=C(CSc1nnc2c3ccccc3c(=O)n(CC(=O)Nc3ccc(C(=O)O)cc3)n12)Nc1ccc(C(=O)O)cc1` [VIIa], the IC50 in data set [1] is 7.45 ± 0.44 µM; in data set [2], 2.62 ± 0.1 µM; in data set [3], 3.91 ± 0.15 µM; in data set [4], 48.3 ± 2.3 µM.
